According to patent publication EP4624465A1, “COMPOUND SERVING AS DDR1 KINASE INHIBITOR, AND MEDICINE” (Nippon Shinyaku Co., Ltd., priority 2022, dated 2024):
pIC50: −log10 of the molar value. Structures can show the parent of a compound that is named as a salt.

Each molecule was assayed against DDR1 kinase (Homo sapiens, UniProt Q08345) (assay: Evaluation of DDR1 kinase inhibition (LANCE Ultra TR-FRET kinase assay)). Conditions: DDR1 protein 0.5 nM, LANCE Ultra ULight-poly GAT substrate, 2 hours at room temperature, duplicate; read-out: DDR-1 IC50.
Format: biochemical
Parameters: purchased Carna Biosciences 08-113

Sequence of DDR1 kinase (Q08345 19-876 isoform Q08345-2 limits assumed): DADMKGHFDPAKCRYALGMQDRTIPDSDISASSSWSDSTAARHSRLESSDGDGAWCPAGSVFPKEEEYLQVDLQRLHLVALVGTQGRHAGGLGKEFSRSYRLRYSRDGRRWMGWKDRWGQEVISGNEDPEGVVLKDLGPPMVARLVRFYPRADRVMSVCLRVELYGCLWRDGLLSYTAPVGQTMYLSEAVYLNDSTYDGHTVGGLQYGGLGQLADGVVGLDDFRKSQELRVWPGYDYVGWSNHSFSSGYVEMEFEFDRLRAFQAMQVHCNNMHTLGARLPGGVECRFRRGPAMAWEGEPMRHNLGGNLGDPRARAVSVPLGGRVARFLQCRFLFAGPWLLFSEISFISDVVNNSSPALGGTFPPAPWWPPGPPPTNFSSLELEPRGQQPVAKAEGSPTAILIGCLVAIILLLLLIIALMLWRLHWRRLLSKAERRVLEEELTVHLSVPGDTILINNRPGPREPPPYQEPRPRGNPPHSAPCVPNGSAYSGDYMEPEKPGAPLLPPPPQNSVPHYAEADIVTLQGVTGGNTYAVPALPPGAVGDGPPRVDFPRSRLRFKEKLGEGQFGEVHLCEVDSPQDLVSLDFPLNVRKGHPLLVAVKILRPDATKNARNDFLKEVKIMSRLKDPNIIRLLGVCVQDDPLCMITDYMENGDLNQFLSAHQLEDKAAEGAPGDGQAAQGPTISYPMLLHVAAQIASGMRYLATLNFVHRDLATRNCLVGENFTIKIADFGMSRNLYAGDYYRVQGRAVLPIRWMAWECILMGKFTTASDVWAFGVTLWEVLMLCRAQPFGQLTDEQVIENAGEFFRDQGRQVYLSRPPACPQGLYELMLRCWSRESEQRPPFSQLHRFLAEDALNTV

Row | SMILES | pIC50
1 | Nc1cc(C(=O)N2CC(c3nn(CC(=O)N4CCC[C@H]4COC(F)(F)F)c4cc(F)cc(F)c34)C2)c(F)cn1 [Compound E-175, 2-{3-[1-(2-amino-5-fluoropyridine-4-carbonyl)azetidin-3-yl]-4,6-difluoro-1H-indazol-1-yl}-1-[(2S)-2-[(trifluoromethoxy)methyl]pyrrolidin-1-yl]ethan-1-one] | 9.30
2 | CC1(C)CN(C(=O)Cn2nc(C3CN(C(=O)c4cc(N)ncc4F)C3)c3c(F)cc(F)cc32)CCO1 [Compound E-176, 2-{3-[1-(2-amino-5-fluoropyridine-4-carbonyl)azetidin-3-yl)-4,6-difluoro-1H-indazol-1-yl}-1-(2,2-dimethylmorpholin-4-yl)ethan-1-one] | 8.08
3 | CC1(C)COCCN1C(=O)Cn1nc(C2CN(C(=O)c3cc(N)ncc3F)C2)c2c(F)cc(F)cc21 [Compound E-177, 2-{3-[1-(2-amino-5-fluoropyridine-4-carbonyl)azetidin-3-yl)-4,6-difluoro-1H-indazol-1-yl}-1-(3,3-dimethylmorpholin-4-yl)ethan-1-one] | 8.68
4 | Cc1cc2c(C3CN(C(=O)c4ccnc(N)c4C)C3)nn(CC(=O)N3CCO[C@@H](C(F)(F)F)C3)c2cn1 [Compound E-178, 2-{3-[1-(2-amino-3-methylpyridine-4-carbonyl)azetidin-3-yl]-5-methyl-1H-pyrazolol3,4-clpyridin-1-yl}-1-[(2R)-2-(trifluoromethyl)morpholin-4-yl]ethan-1-one dihydrochloride] | 7.27
5 | COC[C@@H]1CCCN1C(=O)Cn1nc(C2CN(C(=O)c3cc(N)ncc3F)C2)c2c(F)cc(F)cc21 [Compound E-179, 2-{3-[1-(2-amino-5-fluoropyridine-4-carbonyl)azetidin-3-yl]-4,6-difluoro-1H-indazol-1-yl}-1-f(2S)-2-(methoxymethyl)pyrrolidin-1-yllethan-1-one] | 8.54
6 | C[C@H]1COC[C@H](C)N1C(=O)Cn1nc(C2CN(C(=O)c3cc(N)ncc3F)C2)c2c(F)cc(F)cc21 [Compound E-182, 2-{3-[1-(2-amino-5-fluoropyridine-4-carbonyl)azetidin-3-yl]-4,6-difluoro-1H-indazol-1-yl}-1-[(3S,5S)-3,5-dimethylmorpholin-4-yl]ethan-1-one] | 7.92
7 | Nc1nccc(C(=O)N2CC(c3nn(CC(=O)N4CCO[C@@H](C(F)(F)F)C4)c4cc(F)cc(F)c34)C2)c1F [Compound E-184, 2-{3-[1-(2-amino-3-fluoropyridine-4-carbonyl)azetidin-3-yl]-4,6-difluoro-1H-indazol-1-yl}-1-[(2R)-2-(trifluoromethyl)morpholin-4-yl]ethan-1-one p-toluenesulfonate] | 8.52
8 | CC1(C)COCCN1C(=O)Cn1nc(C2CN(C(=O)c3cc(N)ncc3F)C2)c2ccccc21 [Compound E-187, 2-{3-[1-(2-amino-5-fluoropyridine-4-carbonyl)azetidin-3-yl]-1H-indazol-1-yl}-1-(3,3-dimethylmorpholin-4-yl)ethan-1-one] | 9.22
9 | CC1(C)COCCN1C(=O)Cn1nc(C2CN(C(=O)c3ccnc(N)c3F)C2)c2ccccc21 [Compound E-190, 2-{3-[1-(2-amino-3-fluoropyridine-4-carbonyl)azetidin-3-yl]-1H-indazol-1-yl}-1-(3,3-dimethylmorpholin-4-yl)ethan-1-one] | 8.12
10 | Nc1cc(C(=O)N2CC(c3nn(CC(=O)N4CCO[C@@H](C(F)(F)F)C4)c4ccccc34)C2)c(F)cn1 [Compound E-192, 2-{3-[1-(2-amino-5-fluoropyridine-4-carbonyl)azetidin-3-yl]-1H-indazol-1-yl}-1-[(2R)-2-(trifluoromethyl)morpholin-4-yl]ethan-1-one] | 8.89
11 | Nc1cc(C(=O)N2CC(c3nn(CC(=O)N4CCO[C@@H](C(F)(F)F)C4)c4ccccc34)C2)ccn1 [Compound E-193, 2-{3-[1-(2-aminopyridine-4-carbonyl)azetidin-3-yl]-1H-indazol-1-yl}-1-[(2R)-2-(trifluoromethyl)morpholin-4-yl]ethan-1-one] | 8.82
12 | CC(C)(C)NC(=O)Cn1nc(C2CN(C(=O)c3ccnc(N)c3)C2)c2ccccc21 [Compound E-198, 2-{3-[1-(2-aminopyridine-4-carbonyl)azetidin-3-yl]-1H-indazol-1-yl}-N-tert-butylacetamide] | 7.51
13 | CC(C)(C)NC(=O)Cn1nc(C2CN(C(=O)c3cc(N)ncc3F)C2)c2ccccc21 [Compound E-199, 2-{3-[1-(2-amino-5-fluoropyridine-4-carbonyl)azetidin-3-yl]-1H-indazol-1-yl}-N-tert-butylacetamide] | 8.28
14 | Cc1ccc2c(c1)c(C1CN(C(=O)c3cc(N)ncc3F)C1)nn2CC(=O)N1CCC[C@H]1C(F)(F)F [Compound E-201, 2-{3-[1-(2-amino-5-fluoropyridine-4-carbonyl)azetidin-3-yl]-5-methyl-1H-indazol-1-yl}-1-[(28)-2-(trifluoromethyl)pyrrolidin-1-yl]ethan-1-one] | 8.77
15 | Nc1cc(C(=O)N2CC(c3nn(CC(=O)N4CCC[C@H]4C(F)(F)F)c4ccc(F)cc34)C2)ccn1 [Compound E-202, 2-{3-[1-(2-aminopyridine-4-carbonyl)azetidin-3-yl]-5-fluoro-1H-indazol-1-yl}-1-[(28)-2-(trifluoromethyl)pyrrolidin-1-yl]ethan-1-one] | 8.96
16 | Nc1cc(C(=O)N2CC(c3nn(CC(=O)N4CCO[C@@H](C(F)(F)F)C4)c4ccc(Cl)cc34)C2)ccn1 [Compound E-205, 2-{3-[1-(2-aminopyridine-4-carbonyl)azetidin-3-yl]-5-chloro-1H-indazol-1-yl}-1-[(2R)-2-(trifluoromethyl)morpholin-4-yl]ethan-1-one] | 8.80
17 | Nc1cc(C(=O)N2CC(c3nn(CC(=O)N4CCC[C@H]4C(F)(F)F)c4ccc(Cl)cc34)C2)ccn1 [Compound E-207, 2-{3-[1-(2-aminopyridine-4-carbonyl)azetidin-3-yl]-6-chloro-1H-indazol-1-yl}-1-[(28)-2-(trifluoromethyl)pyrrolidin-1-yl]ethan-1-one] | 8.80
18 | COCC(C)(C)NC(=O)Cn1nc(C2CN(C(=O)c3ccnc(N)c3)C2)c2ccccc21 [Compound E-208] | 6.77
19 | CC1(NC(=O)Cn2nc(C3CN(C(=O)c4ccnc(N)c4)C3)c3ccccc32)CCOCC1 [Compound E-209, 2-{3-[1-(2-aminopyridine-4-carbonyl)azetidin-3-yl]-1H-indazol-1-yl}-N-(4-methyloxan-4-yl)acetamide] | 6.55
20 | Nc1cc(C(=O)N2CC(c3nn(CC(=O)N4CCC[C@H]4C(F)(F)F)c4ccccc34)C2)c(Cl)cn1 [Compound E-210, 2-{3-[1-(2-amino-5-chloropyridine-4-carbonyl)azetidin-3-yl]-1H-indazol-1-yl]-1-[(2S)-2-(trifluoromethyl)pyrrolidin-1-yl]ethan-1-one] | 8.46
21 | Nc1nccc(C(=O)N2CC(c3nn(CC(=O)N4CCO[C@@H](C(F)(F)F)C4)c4ccccc34)C2)n1 [Compound E-215, 2-{3-[1-(2-aminopyrimidine-4-carbonyl)azetidin-3-yl]-1H-indazol-1-yl}-1-[(2R)-2-(trifluoromethyl)morpholin-4-yl]ethan-1-one] | 7.25

Further lines, results first:

Row | pIC50 | SMILES
22 | 7.89 | Nc1cc(C(=O)N2CC(c3nn(Cc4noc(C(F)(F)F)n4)c4cccc(F)c34)C2)ccn1 [Compound E-216, 4-[3-(4-fluoro-1-([5-(trifluoromethyl)-1,2,4-oxadiazol-3-yl]methyl)-1H-indazol-3-yl)azetidine-1-carbonyl]pyridin-2-amine]
23 | 7.49 | Nc1cc(C(=O)N2CC(c3nn(Cc4noc(C(F)(F)F)n4)c4ccccc34)C2)ccn1 [Compound E-217, 4-[3-(1-{[5-(trifluoromethyl)-1,2.4-oxadiazol-3-yl]methyl}-1 H-indazol-3-yl)azetidine-1-carbonyl]pyridin-2-amine]
24 | 6.80 | Nc1cc(C(=O)N2CC(c3nn(CC(=O)N4CCC[C@H]4CO)c4ccccc34)C2)ccn1 [Compound E-219, 2-{3-[1-(2-aminopyridine-4-carbonyl)azetidin-3-yl]-1H-indazol-1-yl]-1-[(2S)-2-(hydroxymethyl)pyrrolidin-1-yl]ethan-1-one]
25 | 8.44 | CC(C)(C)OC(=O)Cn1nc(C2CN(C(=O)c3cc(N)ncc3F)C2)c2ccccc21 [Compound E-220, tert-butyl 2-{3-[1-(2-amino-5-fluoropyridine-4-carbony)azetidin-3-yl]-1H-indazol-1-yl}acetate]
26 | 8.36 | CC1(C)CCCN1C(=O)Cn1nc(C2CN(C(=O)c3ccnc(N)c3)C2)c2ccccc21 [Compound E-221, 2-{3-[1-(2-aminopyridine-4-carbonyl)azetidin-3-yl]-1H-indazol-1-yl}-1-(2,2-dimethylpyrrolidin-1-yl)ethan-1-one]
27 | 8.68 | CC[C@@H]1CCCN1C(=O)Cn1nc(C2CN(C(=O)c3ccnc(N)c3)C2)c2ccccc21 [Compound E-222, 2-{3-[1-(2-aminopyridine-4-carbonyl)azetidin-3-yl)-1H-indazol-1-yl}-1-[(2R)-2-ethylpyrrolidin-1-yl]ethan-1-one]
28 | 7.09 | Nc1cc(C(=O)N2CC(c3nn(CC(=O)N4CCC5CC54)c4ccccc34)C2)ccn1 (stereo not shown) [Compound E-223, 2-{3-[1-(2-aminopyridine-4-carbonyl)azetidin-3-yl]-1H-indazol-1-yl}-1-{2-azabicyclo[3.1.0)hexan-2-yl}ethan-1-one]
29 | 7.74 | Nc1cc(C(=O)N2CC(c3nn(CC(=O)NC(C4CC4)C4CC4)c4ccccc34)C2)ccn1 [Compound E-224, 2-{3-[1-(2-aminopyridine-4-carbonyl)azetidin-3-yl]-1H-indazol-1-yl}-N-(dicyclopropylmethyl)acetamide]
30 | 7.22 | Nc1cc(C(=O)N2CC(c3nn(CC(=O)NCCOC(F)(F)F)c4ccccc34)C2)ccn1 [Compound E-227, 2-{3-[1-(2-aminopyridine-4-carbonyl)azetidin-3-yl)-1H-indazol-1-yl}-N-[2-(trifluoromethoxy)ethyl]acetamide]
31 | 7.27 | CO[C@H]1CCN(C(=O)Cn2nc(C3CN(C(=O)c4cc(N)ncc4F)C3)c3ccccc32)C1 [Compound E-230, 2-{3-[1-(2-amino-5-fluoropyridine-4-carbonyl)azetidin-3-yl]-1H-indaaol-1-yl}-1-[(3S)-3-methoxypyrrolidin-1-yl]ethan-1-one]
